# Experimental data from patent EP2292241A1, “A SCUTELLARIN DERIVATIVE, THE PREPARING PROCESS, THE PHARMACEUTICAL COMPOSITION AND THE USE THEREOF” (Kunming Pharmaceutical Corp., priority 2008, dated 2009).
# What was measured:
# [1] = test system: rats with MCAO induced focal cerebral ischemia; test: focal cerebral ischemia induced by MCAO (middle cerebral artery occlusion) in rats; type: in vivo, SD rat; conditions: for range of cerebral infarction: TTC stain, % of bilateral cerebral hemispheres weight; for behavior score: full score 12, higher = more severe; for rate of platelet aggregation: ADP-induced, turbidimetry; for range of cerebral infarction rate of decrease: compared with the modeling group; for indicators of coagulation APTT / indicators of coagulation FIB / indicators of coagulation PT / indicators of coagulation TT: plasma 24h after modeling
# Protocol: Male SD rats, weighing 240~290g, grouping and dosages were as above. Additionally, a positive control group, i.e., nimodipine 50mg/kg group was set up. Animals of each group were gavage once daily for consecutive 5 days in predetermined dosage. At 30 minute after the last administration, the animals were anesthetized with 12% chloral hydrate in 350 mg/kg via intraperitoneal injection. The animals were kept left lateral position and the skin was cut along the middle point between right ear and eye line. Temporalis was separated and cheekbone was sheared. A holl was drilled with a dental drill in front of zygomatic root and MCA was exposed. The MCA was hooked with a needle between the vein and olfactory tract in the brain, then was broke, after bleeding was stopped with a cotton ball, muscle and skin layer was sutured in layer. For the sham group, except for no breaking of MCA, other steps were same.
# The animals were scored on neurological functions at 6 hour and 24 hour after modeling, according to behavior such as movement. Such score was used as an indicator of brain dysfunction. […] The standards of grading were as follows;
# The full score of the above standards is 12. The higher the score is, the more severe the behavior disorder is.
# 24 hour after modeling and after neurological scoring, blood was taken via carotid artery intubation in duplicate. For one sample, serum was separated and the activity of AST and LDH was determined according to the method of the kit; for another sample, it was treated with 3.8% sodium citrate in 1:9 for the purpose of anticoagulation, centrifuged at 1000rpm for 5 minutes to prepare platelet rich plasma (PRP), and centrifuged at 3500rpm for 10 minutes to prepare platelet poor plasma (PPP). The rate of platelet aggregation induced by ADP-2Na was determined according to turbidimetry, the final concentration of ADP was […]; TT, PT, APTT and FIB was determined according to the method of the kit, respectively. The brain was removed quickly by decollation after blood taking, and then placed into ice cold saline solution to remove olfactory bulb, cerebellum and brainstem. The brain was weighed after water being absorbed to dryness, and then cut into 5 pieces along the coronal, placed into a 5ml solution containing 4% TTC and 0.1ml K2HPO4 (1mol/L) and incubated for 30 minutes at 37°C and in darkness. During the course every 7 to 8 minutes a turning was made. […] The infracted part was cut and weighed. The percentage of infracted tissue accounting for the total weight of bilateral cerebral hemispheres was calculated by weight area method, which was the range of cerebral infarction.
# [2] = toxic or adverse effect at high dosage in animal experiments; type: in vivo
# [3] = test system: rats with myocardial ischemia caused by coronary artery ligation; test: myocardial ischemia caused by coronary artery ligation in rats; type: in vivo, SD rat; conditions: for rate of platelet aggregation: ADP-induced, turbidimetry; for range of myocardial infarction: TTC stain, infarcted part as % of ventricle weight; for range of myocardial infarction rate of decrease: compared with the modeling group; for indicators of coagulation APTT / indicators of coagulation FIB / indicators of coagulation PT / indicators of coagulation TT: plasma 24h after ligation
# Protocol: Male SD rats of 330~385g were divided at random into sham group, model group, breviscapine tablet of 40mg/kg group, A1 20mg/kg group and A1 40mg/kg group. Animals of each group were gavage once daily for consecutive 5 days in predetermined dosage, for blank group and model group, the rats were given same volume of 0.5% CNC-Na in 10ml/kg body weight. At 30 minute after the last administration, the animals were anesthetized with 12% chloral hydrate in 350 mg/kg via intraperitoneal injection, then a thoracotomy was performed to render the heart exposed. The left anterior descending coronary artery was found between pulmonary artery cone and left ventricular and was ligated at 2-3mm to the root. Reposited the heart and closed the thoracic cavity. For the sham group, the suture was merely placed but not ligated.
# II lead limb ECGs before ligation and at 5min, 30 min, 1h, 2h, 4h and 24h after ligation were recorded, respectively. The change of S-T segment (J point) was measured. After 24h ECG was recorded, blood was collected in duplicate via carotid artery intubation. For one sample, serum was separated and the activity of AST, LDH and CK-MB was determined according to the method of the kit; for another sample, it was treated with 3.8% sodium citrate in 1:9 for the purpose of anticoagulation, centrifuged at 1000rpm for 5 minutes to prepare platelet rich plasma (PRP), and centrifuged at 3500rpm for 10 minutes to prepare platelet poor plasma (PPP). The rate of platelet aggregation induced by ADP-2Na was determined according to turbidimetry, the final concentration of ADP was […]; TT, PT, APTT and FIB was determined according to the method of the kit, respectively. The heart was removed quickly after blood taking, and placed into ice cold saline solution to pump out deposit blood in thoracic cavity. The atria and adipose tissue were removed, and water was adsorbed to dryness. The ventricle was weighed, cut into 5 pieces along the coronal, then incubated and stained for 10 minutes in 1% TTC solution at 37°C in darkness. […] The infracted part was cut and weighed. The percentage of infracted part accounting for the total weight of ventricle was calculated, which was the range of myocardial infarction.
# [4] = comparative study on solubilities (China Pharmacopeia 2005 terms); type: physicochemical; conditions: terms per China Pharmacopeia 2005
# Excerpt: Table 7 Comparison on solubilities of compound A1 of the present invention and scutellarin
# [5] = 20mg/kg, serum 24h after ligation
# [6] = 40mg/kg, serum 24h after ligation
smiles,measurement,setting,value
"COCCOC(=O)C1=C(C)NC(C)=C(C(=O)OC(C)C)C1c1cccc([N+](=O)[O-])c1 (stereo not shown) [nimodipine, reference compound]",body weight 6h after surgery,[1]; 50mg/kg,257.1 ± 11.4 g
same,body weight 24h after surgery,[1]; 50mg/kg,249.6 ± 10.5 g
same,body weight prior to surgery,[1]; 50mg/kg,265.8 ± 12.9 g
same,range of cerebral infarction,[1]; 50mg/kg gavage once daily 5 days,2.27±2.56 %
same,behavior score,"[1]; 50mg/kg, 6h after modeling",6.50±1.68
same,serum enzymes AST,"[1]; 50mg/kg, 24h after modeling",198.6±118.2 u/L
same,serum enzymes LDH,"[1]; 50mg/kg, 24h after modeling",536.7±262.8 u/L
same,behavior score,"[1]; 50mg/kg, 24h after modeling",4.83±1.40
same,rate of platelet aggregation,"[1]; 50mg/kg, 24h after modeling",54.15±7.76%
same,range of cerebral infarction rate of decrease,[1]; 50mg/kg,60.66%
same,indicators of coagulation APTT,[1]; 50mg/kg,61.02 ± 44.79 s
same,indicators of coagulation FIB,[1]; 50mg/kg,3.52 ± 1.14 g/L
same,indicators of coagulation PT,[1]; 50mg/kg,23.38 ± 8.23 s
same,indicators of coagulation TT,[1]; 50mg/kg,88.55 ± 32.24 s
"COc1ccc(-c2cc(=O)c3c(OC)c(OC)c(OC4O[C@H](C(=O)O)[C@@H](O)[C@H](O)[C@H]4O)cc3o2)cc1 (stereo partly shown) [A1, 4',5,6-trimethoxylscutellarin]",toxic or adverse effect,[2],No toxic or adverse effect was found
same,body weight 6h after surgery,[1]; 20mg/kg,258.3 ± 11.9 g
same,body weight 24h after surgery,[1]; 20mg/kg,250.0 ± 15.1 g
same,body weight prior to surgery,[1]; 20mg/kg,268.8 ± 12.4 g
same,range of cerebral infarction,[1]; 20mg/kg gavage once daily 5 days,2.36±1.81 %
same,behavior score,"[1]; 20mg/kg, 6h after modeling",6.42±1.62
same,serum enzymes AST,"[1]; 20mg/kg, 24h after modeling",171.2±71.6 u/L
same,serum enzymes LDH,"[1]; 20mg/kg, 24h after modeling",571.1±287.5 u/L
same,behavior score,"[1]; 20mg/kg, 24h after modeling",4.92±1.31
same,rate of platelet aggregation,"[1]; 20mg/kg, 24h after modeling",50.52±4.07 %
same,range of cerebral infarction rate of decrease,[1]; 20mg/kg,59.10%
same,indicators of coagulation APTT,[1]; 20mg/kg,62.48 ± 29.08 s
same,indicators of coagulation FIB,[1]; 20mg/kg,3.38 ± 1.07 g/L
same,indicators of coagulation PT,[1]; 20mg/kg,25.56 ± 5.30 s
same,indicators of coagulation TT,[1]; 20mg/kg,95.55 ± 24.80 s
same,body weight 6h after surgery,[1]; 40mg/kg,253.8 ± 12.1 g
same,body weight 24h after surgery,[1]; 40mg/kg,244.2 ± 12.2 g
same,body weight prior to surgery,[1]; 40mg/kg,265.8 ± 12.4 g
same,range of cerebral infarction,[1]; 40mg/kg gavage once daily 5 days,2.04±1.43 %
same,behavior score,"[1]; 40mg/kg, 6h after modeling",5.75±1.42
same,serum enzymes AST,"[1]; 40mg/kg, 24h after modeling",152.9±33.0 u/L
same,serum enzymes LDH,"[1]; 40mg/kg, 24h after modeling",472.0±231.9 u/L
same,behavior score,"[1]; 40mg/kg, 24h after modeling",4.25±1.60
same,rate of platelet aggregation,"[1]; 40mg/kg, 24h after modeling",52.38±5.24 %
same,range of cerebral infarction rate of decrease,[1]; 40mg/kg,64.64%
same,indicators of coagulation APTT,[1]; 40mg/kg,75.15 ± 27.41 s
same,indicators of coagulation FIB,[1]; 40mg/kg,3.59 ± 0.76 g/L
same,indicators of coagulation PT,[1]; 40mg/kg,23.43 ± 8.66 s
same,indicators of coagulation TT,[1]; 40mg/kg,62.04 ± 40.80 s
same,change of S-T segment after ligation,"[3]; 20mg/kg gavage once daily 5 days, 5min after ligation",0.17±0.11 mv
same,change of S-T segment after ligation,"[3]; 20mg/kg gavage once daily 5 days, 30min after ligation",0.12±0.09 mv
same,change of S-T segment after ligation,"[3]; 20mg/kg gavage once daily 5 days, 1h after ligation",0.11±0.08 mv
same,change of S-T segment after ligation,"[3]; 20mg/kg gavage once daily 5 days, 2h after ligation",0.11±0.07 mv
same,change of S-T segment after ligation,"[3]; 20mg/kg gavage once daily 5 days, 4h after ligation",0.11±0.08 mv
same,change of S-T segment after ligation,"[3]; 20mg/kg gavage once daily 5 days, 24h after ligation",0.07±0.08 mv
same,rate of platelet aggregation,"[3]; 20mg/kg, 24h after ligation",51.20±7.41 %
same,range of myocardial infarction,[3]; 20mg/kg,3.50±2.68 %
same,range of myocardial infarction rate of decrease,[3]; 20mg/kg,45.65%
same,indicators of coagulation APTT,[3]; 20mg/kg,78.17 ± 28.14 s
same,indicators of coagulation FIB,[3]; 20mg/kg,4.77 ± 1.11 g/L
same,indicators of coagulation PT,[3]; 20mg/kg,25.90 ± 3.51 s
same,indicators of coagulation TT,[3]; 20mg/kg,92.41 ± 42.37 s
same,myocardial enzymology AST,[3]; [5],0.61±0.26 ku/L
same,myocardial enzymology CK-MB,[3]; [5],0.71±0.45 ku/L
same,change of S-T segment after ligation,"[3]; 40mg/kg gavage once daily 5 days, 5min after ligation",0.14±0.12 mv
same,change of S-T segment after ligation,"[3]; 40mg/kg gavage once daily 5 days, 30min after ligation",0.06±0.06 mv
same,change of S-T segment after ligation,"[3]; 40mg/kg gavage once daily 5 days, 1h after ligation",0.05±0.04 mv
same,change of S-T segment after ligation,"[3]; 40mg/kg gavage once daily 5 days, 2h after ligation",0.05±0.04 mv
same,change of S-T segment after ligation,"[3]; 40mg/kg gavage once daily 5 days, 4h after ligation",0.06±0.05 mv
same,change of S-T segment after ligation,"[3]; 40mg/kg gavage once daily 5 days, 24h after ligation",0.02±0.03 mv
same,rate of platelet aggregation,"[3]; 40mg/kg, 24h after ligation",48.22±5.55 %
same,range of myocardial infarction,[3]; 40mg/kg,2.52±2.16 %
same,range of myocardial infarction rate of decrease,[3]; 40mg/kg,60.87%
same,indicators of coagulation APTT,[3]; 40mg/kg,75.96 ± 35.87 s
same,indicators of coagulation FIB,[3]; 40mg/kg,3.95 ± 0.84 g/L
same,indicators of coagulation PT,[3]; 40mg/kg,25.75 ± 5.26 s
same,indicators of coagulation TT,[3]; 40mg/kg,93.04 ± 35.64 s
same,myocardial enzymology AST,[3]; [6],0.61±0.20 ku/L
same,myocardial enzymology CK-MB,[3]; [6],0.80±0.68 ku/L
same,myocardial enzymology LDH,[3]; [6],0.61±0.24 ku/L
O=C(O)[C@H]1O[C@@H](Oc2cc3oc(-c4ccc(O)cc4)cc(=O)c3c(O)c2O)[C@H](O)[C@@H](O)[C@@H]1O [scutellarin],solubility,[4]; 0.01N NaOH,soluble
same,solubility,[4]; 95%EtOH,slightly soluble
same,solubility,[4]; H2O,very slightly soluble
same,solubility,[4]; MeOH,slightly soluble
same,solubility,[4]; n-BuOH,slightly soluble
